Values joined by “and” are separate entries in the source; they are usually repeats but may differ in a detail not shown here. Equal values may be shown once. Toxic doses and inconclusive results are not listed.
Tested on: CD2F1 mice, L1210 leukemia ip, survival T/C
Experiment: NCI In Vivo Anticancer Drug Screen. Data for tumor model L1210 Leukemia (intraperitoneal) in CD2F1 (CDF1) mice
Conditions: higher = longer survival
Method in brief: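 Vehicle-treated tumor-bearing mice served as controls (C) for compound-treated mice (T). Reported figure is T divided by C.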

[1] = endpoint: mean survival time, dose: 75.0 mg/kg/injection, schedule: Q01DX001 (ip), vehicle: saline
[2] = endpoint: mean survival time, dose: 150.0 mg/kg/injection, schedule: Q01DX001 (ip), vehicle: saline
[3] = endpoint: mean survival time, dose: 300.0 mg/kg/injection, schedule: Q01DX001 (ip), vehicle: saline
[4] = endpoint: mean survival time, dose: 50.0 mg/kg/injection, schedule: Q01DX001 (ip), vehicle: saline
[5] = endpoint: mean survival time, dose: 100.0 mg/kg/injection, schedule: Q01DX001 (ip), vehicle: saline
[6] = endpoint: mean survival time, dose: 100.0 mg/kg/injection, schedule: Q01DX009 (ip), vehicle: saline with Tween-80
[7] = endpoint: mean survival time, dose: 200.0 mg/kg/injection, schedule: Q01DX001 (ip), vehicle: saline
[8] = endpoint: mean survival time, dose: 200.0 mg/kg/injection, schedule: Q01DX009 (ip), vehicle: saline with Tween-80

O=C1N(O)C2(CCCCC2)/C(=N/O)C12CCCCC2
T/C [1]: 100 % of control | T/C [2]: 94 % of control | T/C [3]: 94 % of control

C=C(C)/C([O-])=N/[N+](C)(C)CC(O)CCCCCCCCCCCC (stereo not given)
T/C (endpoint: mean survival time, dose: 25.0 mg/kg/injection, schedule: Q01DX001 (ip), vehicle: saline): 96 % of control and 97 % of control | T/C [4]: 97 % of control and 100 % of control | T/C (endpoint: mean survival time, dose: 50.0 mg/kg/injection, schedule: Q01DX009 (ip), vehicle: saline with Tween-80): 94 % of control | T/C [5]: 96 % of control and 97 % of control | T/C [6]: 94 % of control | T/C [7]: 93 % of control and 100 % of control | T/C [8]: 97 % of control

CC(N(N=O)c1cccc(Cl)c1)S(=O)(=O)O (stereo not given)
T/C (endpoint: mean survival time, dose: 100.0 mg/kg/injection, schedule: Q04DX002 (ip), vehicle: saline with Tween-80): 101 % of control | T/C (endpoint: mean survival time, dose: 200.0 mg/kg/injection, schedule: Q04DX002 (ip), vehicle: saline with Tween-80): 97 % of control | T/C (endpoint: mean survival time, dose: 400.0 mg/kg/injection, schedule: Q04DX002 (ip), vehicle: saline with Tween-80): 86 % of control

COc1ccc(OC)c(C(O)CCc2cccc(N)c2)c1 (stereo not given)
T/C (endpoint: mean survival time, dose: 100.0 mg/kg/injection, schedule: Q04DX002 (ip), vehicle: Klucel (hydroxypropylcellulose) (HPC)): 93 % of control | T/C (endpoint: mean survival time, dose: 200.0 mg/kg/injection, schedule: Q04DX002 (ip), vehicle: Klucel (hydroxypropylcellulose) (HPC)): 93 % of control | T/C (endpoint: mean survival time, dose: 400.0 mg/kg/injection, schedule: Q04DX002 (ip), vehicle: Klucel (hydroxypropylcellulose) (HPC)): 97 % of control

c1ccc([Te][Te]c2ccccc2)cc1
T/C (endpoint: median survival time, dose: 12.5 mg/kg/injection, schedule: Q01DX009 (ip), vehicle: saline with Tween-80): 104 % of control | T/C (endpoint: median survival time, dose: 25.0 mg/kg/injection, schedule: Q01DX009 (ip), vehicle: saline with Tween-80): 108 % of control | T/C (endpoint: median survival time, dose: 50.0 mg/kg/injection, schedule: Q01DX009 (ip), vehicle: saline with Tween-80): 104 % of control

O=C(O)c1cc(=O)c2ccccc2[nH]1
T/C [4]: 93 % of control | T/C [5]: 93 % of control | T/C [7]: 91 % of control

O=C(c1ccccc1)c1c[nH]c2ccccc12
T/C (endpoint: mean survival time, dose: 100.0 mg/kg/injection, schedule: Q04DX003 (ip), vehicle: saline with Tween-80): 100 % of control | T/C (endpoint: mean survival time, dose: 200.0 mg/kg/injection, schedule: Q04DX003 (ip), vehicle: saline with Tween-80): 86 % of control | T/C (endpoint: mean survival time, dose: 400.0 mg/kg/injection, schedule: Q04DX003 (ip), vehicle: saline with Tween-80): 90 % of control

Cc1cc(=O)[nH]c2c1c(C#N)cn2C1CCCCC1
T/C (endpoint: mean survival time, dose: 100.0 mg/kg/injection, schedule: Q04DX003 (ip), vehicle: saline): 101 % of control | T/C (endpoint: mean survival time, dose: 200.0 mg/kg/injection, schedule: Q04DX003 (ip), vehicle: saline): 89 % of control | T/C (endpoint: mean survival time, dose: 400.0 mg/kg/injection, schedule: Q04DX003 (ip), vehicle: saline): 93 % of control

O=C(NCCCC1C2CCC(C2)C1CNC(=O)Nc1cccc(Cl)c1)Nc1cccc(Cl)c1 (stereo not given)
T/C [6]: 93 % of control | T/C [8]: 93 % of control | T/C (endpoint: mean survival time, dose: 400.0 mg/kg/injection, schedule: Q01DX009 (ip), vehicle: saline with Tween-80): 89 % of control

COC(=O)C1C2CC3c4[nH]c5cc(OC)c(Br)cc5c4CCN3CC2CC(OC(=O)c2cc(OC)c(OC)c(OC)c2)C1OC (stereo not given)
T/C [1]: 92 % of control | T/C [2]: 103 % of control | T/C [3]: 105 % of control

CC1(C)OC2C(CF)OC(n3cc(Br)c(=O)[nH]c3=O)C2O1 (stereo not given)
T/C (endpoint: median survival time, dose: 12.5 mg/kg/injection, schedule: Q01DX005 (ip), vehicle: distilled water + Tween-80): 98 % of control | T/C (endpoint: median survival time, dose: 25.0 mg/kg/injection, schedule: Q01DX005 (ip), vehicle: distilled water + Tween-80): 94 % of control | T/C (endpoint: median survival time, dose: 50.0 mg/kg/injection, schedule: Q01DX005 (ip), vehicle: distilled water + Tween-80): 101 % of control | T/C (endpoint: median survival time, dose: 100.0 mg/kg/injection, schedule: Q01DX005 (ip), vehicle: distilled water + Tween-80): 103 % of control | T/C (endpoint: median survival time, dose: 200.0 mg/kg/injection, schedule: Q01DX005 (ip), vehicle: distilled water + Tween-80): 88 % of control

OCC1OC(n2cnc3c(NO)nc(NO)nc32)C(O)C1O (stereo not given)
T/C (endpoint: mean survival time, dose: 2.25 mg/kg/injection, schedule: Q01DX009 (ip), vehicle: saline): 115 % of control | T/C (endpoint: mean survival time, dose: 4.5 mg/kg/injection, schedule: Q01DX009 (ip), vehicle: saline): 116 % of control | T/C (endpoint: mean survival time, dose: 9.0 mg/kg/injection, schedule: Q01DX009 (ip), vehicle: saline): 116 % of control | T/C (endpoint: mean survival time, dose: 18.0 mg/kg/injection, schedule: Q01DX009 (ip), vehicle: saline): 122 % of control | T/C (endpoint: mean survival time, dose: 36.0 mg/kg/injection, schedule: Q01DX009 (ip), vehicle: saline): 192 % of control | T/C (endpoint: median survival time, dose: 36.0 mg/kg/injection, schedule: Q01DX009 (ip), vehicle: saline): 178 % of control | T/C (endpoint: median survival time, dose: 54.0 mg/kg/injection, schedule: Q01DX009 (ip), vehicle: saline): 188 % of control | T/C (endpoint: median survival time, dose: 72.0 mg/kg/injection, schedule: Q01DX009 (ip), vehicle: saline): 202 % of control

Cc1ccc(S(=O)(=O)NC(=O)C(Cc2ccccc2)c2ccccc2)cc1 (stereo not given)
T/C (endpoint: mean survival time, dose: 75.0 mg/kg/injection, schedule: Q01DX001 (ip), vehicle: other): 96 % of control | T/C (endpoint: mean survival time, dose: 150.0 mg/kg/injection, schedule: Q01DX001 (ip), vehicle: other): 98 % of control | T/C (endpoint: mean survival time, dose: 300.0 mg/kg/injection, schedule: Q01DX001 (ip), vehicle: other): 96 % of control

Source: PubChem BioAssay AID256 (DTP/NCI, 2004)
